Laboratory results taken from EP4725956A1, “MODIFIED POLYPEPTIDE AND USE THEREOF IN FIELD OF ANALGESIA” (Nanjing Anji Biotechnology Co., Ltd., priority 2023, dated 2024).
Positions of bridges follow the written chain, without caps; N, C: chain ends. Non-standard residues stand in square brackets, D forms with d. Residues, ends and D or L forms follow the SMILES beside them. Bip = N[C@@H](Cc1ccc(-c2ccccc2)cc1)C(=O)O; Hyp = O=C(O)[C@@H]1C[C@@H](O)CN1; Nle = CCCC[C@H](N)C(=O)O; Orn = NCCC[C@H](N)C(=O)O; Aib = CC(C)(N)C(=O)O

Columns and labels:
α9 nAChR = target: T1, α9 nAChR (Homo sapiens, UniProt Q9UGM1); assay: BLI (biolayer interferometry) affinity of peptides to α9 nAChR; format: binding; details: NTA sensor, α9 nAChR 5 µg/mL, peptide 1.372-1000 nM in PBS
T1 construct: inferred from capture on NTA sensor
Source text: BLI is a label-free technology that converts optical interference signals occurring on the surface of BLI biosensors into real-time response signals. By monitoring the molecular binding process in real time, the system determines association rate constants (ka or kon), dissociation rate constants (kd or koff), and initial binding rates, and calculates affinity (KD) by fitting analysis. Here are the specific procedures: NTA sensors (Sartorius) were placed in a pre-wetting tray, which was then positioned in a black 96-well plate with 200 µL PBS per well. The NTA sensors were pre-wetted for at least 15 minutes. The target protein α9 nAChR was diluted in PBS to 5 µg/mL, with 200 µL added per well. Test peptides were dissolved in PBS and serially diluted threefold, with concentrations from high to low as 1000 nM, 333.3 nM, 111.1 nM, 37.04 nM, 12.35 nM, 4.115 nM, and 1.372 nM, with an additional well with PBS only as a zeroconcentration control. After equilibrating the instrument baseline, the NTA sensor was used to immobilize the target protein α9 nAChR. Once immobilization was complete, the baseline was re-equilibrated, followed by a 5-minute association and a 5-minute dissociation phase. Affinity measurements of the test peptides were conducted sequentially using the above procedure. The procedure for measuring peptide affinity to α7 nAChR was similar, except that the α7 nAChR concentration was 20 µg/mL. Tables 2 and 3 show the BLI-determined affinities of alanine-scan peptide analogs with target proteins, which identified sites on the parent peptide suitable for modification. Subsequently, single-site non-natural amino acid substituted peptides were evaluated by BLI for target protein affinity. Finally, multi-site combinatorial modified peptides were measured for affinity by BLI, leading to the selection of high-affinity peptides for further screen and drug development potential. Table 2 Test Results for Affinity of Modified Peptides to α9 nAChR

[1] = test system: mouse diabetic neuropathic pain model; assay: Mouse diabetic neuropathic pain model (Example 10); format: in vivo
Experimental: Except for the control group, the remaining male C57 mice (Hangzhou Ziyuan Experimental Animal Technology Co., Ltd.) were continuously fed a high-sugar, high-fat diet for approximately ten weeks. For the model group, mice were fasted overnight, and streptozotocin (STZ) (Sann Chemical Technology (Shanghai) Co., Ltd.) was dissolved in sodium citrate-citric acid buffer solution and intraperitoneally injected at a dose of 70 mg/kg. About two weeks after STZ injection, the mechanical pain threshold of mice was measured. Mice were placed on a perforated wire mesh for adaptation, and the plantar surface of the right hind paw was vertically stimulated with a blunt needle. Pain threshold data were collected using a biosignal acquisition system. Each mouse was measured three times, and the average value was calculated. Mice were then randomly assigned to groups based on their pain thresholds for drug administration.
Day 1 of dosing: Drug administration was performed according to Table 9. Mechanical pain thresholds of the plantar surface were measured at 0 h, 2 h, 4 h, 6 h, and 8 h after administration.

[2] = test system: mouse oxaliplatin acute chemotherapy pain model; assay: Mouse oxaliplatin chemotherapy pain model, multiple peptides (Example 8); format: in vivo; details: single dose 3 mg/kg s.c., 0.5-8 h post-dose, n=3
Experimental: Oxaliplatin was dissolved in 5% glucose solution to a concentration of 1 mg/mL. For model induction, each male C57 mouse (Shanghai Bikai Keyi Biotechnology Co., Ltd.) received a single intraperitoneal injection of oxaliplatin at 10 mg/kg. Mice in the negative control or blank control group received 5% glucose solution. Approximately one week after model induction, mechanical pain thresholds of the mice were measured three times per mouse, and the average value was calculated. Mice were then randomly assigned to groups based on their pain thresholds. Drug administration was carried out according to the dosing schedule shown in Table 7, with a single dose per mouse. Mechanical pain thresholds were measured at 0.5, 1, 2, 4, 6, and 8 h post-dose. […] Table 7 Dosing Scheme for Oxaliplatin Chemotherapy Pain Model in Mice

[3] = Plasma stability of AJ003-40 and AJ003-24 (HPLC, Example 4); format: in vitro ADME; details: human plasma; for main peak area: 2 mg/mL
Experimental: Peptides AJ003-40 and AJ003-24 were separately weighed and mixed with human plasma to prepare solutions at 2 mg/mL. 300 µL of peptide-containing plasma was mixed with 300 µL acetonitrile, centrifuged at 4°C and 12,000 rpm for 5 minutes, and the supernatant was filtered through an organic membrane. 200 µL of the filtrate was transferred to an LC vial as the 0 h sample. Peptide-containing plasma was incubated in a 37°C water bath. For AJ003-40, 300 µL of plasma was sampled at 24 h, mixed with 300 µL acetonitrile, centrifuged, filtered, and 200 µL of the filtrate was transferred to an LC vial as the 24 h sample. For AJ003-24, 300 µL of plasma was sampled at 22 h, processed similarly, and 200 µL of the filtrate was transferred to an LC vial as the 22 h sample.

[4] = Day 1 of dosing, 2 h and 4 h, 2 mg/kg s.c. (AJ003; AJ003-36 medium dose)
[5] = Day 1 of dosing, 6 h and 8 h, 2 mg/kg s.c. (AJ003; AJ003-36 medium dose)
[6] = Day 4 of dosing, 2 h and 4 h, 2 mg/kg s.c. (AJ003; AJ003-36 medium dose)
[7] = Day 4 of dosing, 6 h and 8 h, 2 mg/kg s.c. (AJ003; AJ003-36 medium dose)
[8] = Day 8 of dosing, 2 h and 4 h, 2 mg/kg s.c. (AJ003; AJ003-36 medium dose)
[9] = Day 8 of dosing, 6 h and 8 h, 2 mg/kg s.c. (AJ003; AJ003-36 medium dose)
[10] = Day 14 of dosing, 2 h and 4 h, 2 mg/kg s.c. (AJ003; AJ003-36 medium dose)
[11] = Day 14 of dosing, 6 h and 8 h, 2 mg/kg s.c. (AJ003; AJ003-36 medium dose)

T1 sequence (Q9UGM1 23-479): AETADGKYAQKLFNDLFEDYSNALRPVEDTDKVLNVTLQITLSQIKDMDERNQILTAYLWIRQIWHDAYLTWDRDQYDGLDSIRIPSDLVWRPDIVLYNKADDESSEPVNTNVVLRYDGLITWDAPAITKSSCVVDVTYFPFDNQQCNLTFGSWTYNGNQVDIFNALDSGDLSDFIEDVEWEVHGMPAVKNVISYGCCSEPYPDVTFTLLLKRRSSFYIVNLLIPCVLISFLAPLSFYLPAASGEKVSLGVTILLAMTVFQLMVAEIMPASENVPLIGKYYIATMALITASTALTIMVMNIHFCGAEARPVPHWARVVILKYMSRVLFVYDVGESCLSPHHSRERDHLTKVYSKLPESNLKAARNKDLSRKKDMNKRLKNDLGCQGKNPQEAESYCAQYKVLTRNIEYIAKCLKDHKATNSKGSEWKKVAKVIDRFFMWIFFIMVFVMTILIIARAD

## CC(C)C[C@H](NC(=O)[C@@H](NC(=O)[C@H]1CSSC[C@H](NC(=O)[C@H](CO)NC(=O)CN)C(=O)N[C@@H](CO)C(=O)N[C@@H]([C@@H](C)O)C(=O)N2CCC[C@H]2C(=O)N2CCC[C@H]2C(=O)N[C@@H](CO)C(=O)N1)C(C)C)C(=O)N[C@@H](Cc1ccc(O)cc1)C(=O)N[C@@H](CO)C(=O)O [AJ003, GSCSTPPS-(D-Cys)-VLYS (disulfide bond between positions 3 and 9)] (H-GSCSTPPS[dC]VLYS-OH; disulfide 3-9)
α9 nAChR
  Kd: 4.48 nM
[1]; [4]
  analgesic activity compared with the model group (mechanical pain threshold): significant analgesic activity
[1]; [5]
  analgesic activity compared with the model group (mechanical pain threshold): did not show significant differences
[1]; [6]
  analgesic activity compared with the model group (mechanical pain threshold): significant analgesic activity
[1]; [7]
  analgesic activity compared with the model group (mechanical pain threshold): no significant difference
[1]; [8]
  analgesic activity compared with the model group (mechanical pain threshold): significant analgesic activity
[1]; [9]
  analgesic activity compared with the model group (mechanical pain threshold): no significant difference
[1]; [10]
  analgesic activity compared with the model group (mechanical pain threshold): significant analgesic activity
[1]; [11]
  analgesic activity compared with the model group (mechanical pain threshold): did not show significant differences

## CCCC[C@H](NC(=O)[C@@H](NC(=O)[C@H]1CSSC[C@H](NC(=O)[C@H](CO)NC(=O)CN)C(=O)N[C@@H](CO)C(=O)N[C@H]([C@H](C)O)C(=O)N2C[C@H](O)C[C@H]2C(=O)N2C[C@H](O)C[C@H]2C(=O)NC(C)(C)C(=O)N1)C(C)C)C(=O)N[C@@H](Cc1ccc(-c2ccccc2)cc1)C(=O)N[C@@H](CCCN)C(N)=O [AJ003-36, GSCS-(D-Thr)-Hyp-Hyp-Aib-(D-Cys)-V-Nle-Bip-Orn-NH2 (3,9 disulfide bond)] (H-GSCS[dT][Hyp][Hyp][Aib][dC]V[Nle][Bip][Orn]-NH2; disulfide 3-9)
[2]
  analgesic activity against oxaliplatin-induced chemotherapy pain (mechanical pain threshold compared with the model group): effective analgesic activity
[1]; Day 1 of dosing, 2 h and 4 h, 1 mg/kg s.c. (low dose)
  analgesic activity compared with the model group (mechanical pain threshold): significant analgesic activity
[1]; [4]
  analgesic activity compared with the model group (mechanical pain threshold): significant analgesic activity
[1]; Day 1 of dosing, 2 h and 4 h, 3 mg/kg s.c. (high dose)
  analgesic activity compared with the model group (mechanical pain threshold): significant analgesic activity
[1]; Day 1 of dosing, 6 h and 8 h, 1 mg/kg s.c. (low dose)
  analgesic activity compared with the model group (mechanical pain threshold): significant analgesic activity
[1]; [5]
  analgesic activity compared with the model group (mechanical pain threshold): significant analgesic activity
[1]; Day 1 of dosing, 6 h and 8 h, 3 mg/kg s.c. (high dose)
  analgesic activity compared with the model group (mechanical pain threshold): significant analgesic activity
[1]; Day 4 of dosing, 2 h and 4 h, 1 mg/kg s.c. (low dose)
  analgesic activity compared with the model group (mechanical pain threshold): significant analgesic activity
[1]; [6]
  analgesic activity compared with the model group (mechanical pain threshold): significant analgesic activity
[1]; Day 4 of dosing, 2 h and 4 h, 3 mg/kg s.c. (high dose)
  analgesic activity compared with the model group (mechanical pain threshold): significant analgesic activity
[1]; Day 4 of dosing, 6 h and 8 h, 1 mg/kg s.c. (low dose)
  analgesic activity compared with the model group (mechanical pain threshold): significant analgesic activity
[1]; [7]
  analgesic activity compared with the model group (mechanical pain threshold): significant analgesic activity
[1]; Day 4 of dosing, 6 h and 8 h, 3 mg/kg s.c. (high dose)
  analgesic activity compared with the model group (mechanical pain threshold): significant analgesic activity
[1]; Day 8 of dosing, 2 h and 4 h, 1 mg/kg s.c. (low dose)
  analgesic activity compared with the model group (mechanical pain threshold): significant analgesic activity
[1]; [8]
  analgesic activity compared with the model group (mechanical pain threshold): significant analgesic activity
[1]; Day 8 of dosing, 2 h and 4 h, 3 mg/kg s.c. (high dose)
  analgesic activity compared with the model group (mechanical pain threshold): significant analgesic activity
[1]; Day 8 of dosing, 6 h and 8 h, 1 mg/kg s.c. (low dose)
  analgesic activity compared with the model group (mechanical pain threshold): no significant difference
[1]; [9]
  analgesic activity compared with the model group (mechanical pain threshold): significant analgesic activity
[1]; Day 8 of dosing, 6 h and 8 h, 3 mg/kg s.c. (high dose)
  analgesic activity compared with the model group (mechanical pain threshold): significant analgesic activity
[1]; Day 14 of dosing, 2 h and 4 h, 1 mg/kg s.c. (low dose)
  analgesic activity compared with the model group (mechanical pain threshold): significant analgesic activity
[1]; [10]
  analgesic activity compared with the model group (mechanical pain threshold): significant analgesic activity
[1]; Day 14 of dosing, 2 h and 4 h, 3 mg/kg s.c. (high dose)
  analgesic activity compared with the model group (mechanical pain threshold): significant analgesic activity
[1]; Day 14 of dosing, 6 h and 8 h, 1 mg/kg s.c. (low dose)
  analgesic activity compared with the model group (mechanical pain threshold): significant analgesic activity
[1]; [11]
  analgesic activity compared with the model group (mechanical pain threshold): significant analgesic activity
[1]; Day 14 of dosing, 6 h and 8 h, 3 mg/kg s.c. (high dose)
  analgesic activity compared with the model group (mechanical pain threshold): significant analgesic activity
[1]; high dose 3 mg/kg s.c. vs pregabalin 60 mg/kg oral, over four administrations
  analgesic activity compared with pregabalin: slightly superior analgesic activity

## CCCC[C@H](NC(=O)[C@@H](NC(=O)[C@H]1CSSC[C@H](NC(=O)[C@H](CO)NC(=O)CN)C(=O)N[C@@H](CO)C(=O)N[C@H]([C@H](C)O)C(=O)N2C[C@H](O)C[C@H]2C(=O)N2C[C@H](O)C[C@H]2C(=O)N[C@@H](CO)C(=O)N1)C(C)C)C(=O)N[C@@H](Cc1c[nH]c2ccccc12)C(=O)N[C@@H](CCCN)C(N)=O [AJ003-40, GSCS-(D-Thr)-Hyp-Hyp-S-(D-Cys)-V-Nle-W-Orn-NH2 (3,9 disulfide bond)] (H-GSCS[dT][Hyp][Hyp]S[dC]V[Nle]W[Orn]-NH2; disulfide 3-9)
[3]; 0 h
  main peak area: 15149.38
[3]; 37°C, 24 h
  main peak area: 11829.51
[3]; 37°C, 24 h, read-out: degradation
  metabolised at 24 h, 2 mg/mL: 21.9%
